Several values for one entry are separate records, joined by “and”; a condition that tells them apart may be missing. Equal values may be shown once. Read-outs that look alike come from different tables or passages of the source.
Legend:
[1] = test system: ppMlc (T18/S19) levels in A7R5 cells; assay: A7R5 in-cell ELISA (pMLC); assay type: cell-based, Rat; conditions: for inhibition at 10 µM / pMLC % inh A7R5 @ [conc]: 10 μM compound
In short: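 Cellular IC50 came from a nonlinear regression fit of ppMlc (T18/S19) signal, read by colorimetric in-cell ELISA on fixed cells. Rat A7R5 aortic smooth muscle cells had been exposed for 90 min to compounds in 9-point 2-fold serial dilution, 24 h after seeding.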

[2] = molecular target: Recombinant ROCK2 (amino acids 1-552) (Homo sapiens (Human), UniProt O75116); assay: Z′-Lyte kinase assay, ROCK2; assay type: biochemical; conditions: for inhibition at 1 µM: 1 μM compound, read-out: ROCK2 % inh. @ [conc]
In short: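 IC50s derive from nonlinear curve fits over a 9-point, 2-fold dilution series, with single-point inhibition at 1 μM expressed relative to DMSO. Activity of truncated human ROCK1 (residues 1-535) and ROCK2 (residues 1-552) measured with the Z′-Lyte kinase format.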

[3] = Rattus norvegicus, A7R5, A7R5 cells, read-out: pMLC % inh A7R5 @ [conc]
[4] = Rattus norvegicus, A7R5, A7R5 cells, ppMlc (T18/S19)
[5] = Rattus norvegicus, A7R5, A7R5 cells

Recombinant ROCK2 (amino acids 1-552), sequence (O75116 1-552): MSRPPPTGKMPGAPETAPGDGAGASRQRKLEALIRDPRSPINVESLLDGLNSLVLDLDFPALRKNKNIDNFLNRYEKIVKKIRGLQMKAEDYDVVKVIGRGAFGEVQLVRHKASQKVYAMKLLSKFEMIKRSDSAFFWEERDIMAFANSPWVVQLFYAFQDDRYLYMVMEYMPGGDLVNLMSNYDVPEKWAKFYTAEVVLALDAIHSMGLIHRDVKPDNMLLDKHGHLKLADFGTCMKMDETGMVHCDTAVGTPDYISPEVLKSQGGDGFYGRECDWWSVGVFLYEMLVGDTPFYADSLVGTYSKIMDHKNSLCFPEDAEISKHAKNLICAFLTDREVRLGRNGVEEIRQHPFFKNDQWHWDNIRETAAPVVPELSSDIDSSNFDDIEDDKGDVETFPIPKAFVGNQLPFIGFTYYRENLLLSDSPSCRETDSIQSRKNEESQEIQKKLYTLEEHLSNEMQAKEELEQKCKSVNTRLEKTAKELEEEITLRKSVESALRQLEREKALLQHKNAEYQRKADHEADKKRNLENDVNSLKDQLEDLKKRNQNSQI

Compound | inhibition at 10 µM [1, 3] [%] | IC50 [2] [nM] | other results
CC1CCNCCN1c1nccc(Nc2ccc3[nH]ncc3c2)n1 (stereo not drawn) [Example 240, N-(2-(7-methyl-1,4-diazepan-1-yl)pyrimidin-4-yl)-1H-indazol-5-amine] | 78.1 |  | IC50 [1, 4]: 1110 nM; inhibition at 1 µM [2]: 84.5%
CCC1CNCCCN1c1nccc(Nc2ccc3[nH]ncc3c2)n1 (stereo not drawn) [Example 241, N-(2-(2-ethyl-1,4-diazepan-1-yl)pyrimidin-4-yl)-1H-indazol-5-amine] | 81 |  | IC50 [1, 4]: 954 nM; inhibition at 1 µM [2]: 85.2%
COc1cccc(CN(C)C2CCCN(c3nccc(Nc4ccc5[nH]ncc5c4)n3)C2)c1 (stereo not drawn) [Example 242, N-(2-(3-((3-methoxybenzyl)(methyl)amino)piperidin-1-yl)pyrimidin-4-yl)-1H-indazol-5-amine] | 41.2 | 747 | 
COc1ccccc1NC1CCCN(c2nccc(Nc3ccc4[nH]ncc4c3)n2)C1 (stereo not drawn) [Example 244, N-(2-(3-((2-methoxyphenyl)amino)piperidin-1-yl)pyrimidin-4-yl)-1H-indazol-5-amine] | 0.8 | > 10000 | 
COc1ccc(N[C@@H]2CCN(c3nccc(Nc4ccc5[nH]ncc5c4)n3)C2)cc1 [Example 246, (R)—N-(2-(3-((4-methoxyphenyl)amino)pyrrolidin-1-yl)pyrimidin-4-yl)-1H-indazol-5-amine] | 1.8 |  | ROCK2 % inh. @ [conc] ([2]; concentration not given): 0%
N[C@H]1CCN(c2nccc(Nc3ccc(-c4cn[nH]c4)cc3)n2)C1 [Example 254, (S)—N-(4-(1H-pyrazol-4-yl)phenyl)-2-(3-aminopyrrolidin-1-yl)pyrimidin-4-amine] | 16.2 | 1230 | 
OC1CC2CCC(C1)N2c1nccc(Nc2ccc(-c3cn[nH]c3)cc2)n1 (stereo not drawn) [Example 259, 8-(4-((4-(1H-pyrazol-4-yl)phenyl)amino)pyrimidin-2-yl)-8-azabicyclo[3.2.1]octan-3-ol] |  | > 10000 | inhibition at 10 µM ([1]; Rattus norvegicus, A7R5 cells, read-out: pMLC % inh A7R5 @ [conc]): 6.48%
Cc1cnc(N2CCCNCC2)nc1Nc1ccc(-c2cn[nH]c2)cc1 [Example 261, N-(4-(1H-pyrazol-4-yl)phenyl)-2-(1,4-diazepan-1-yl)-5-methylpyrimidin-4-amine] | 86 |  | IC50 [1, 4]: 1880 nM; inhibition at 1 µM [2]: 74%
c1cc(-c2cn[nH]c2)ccc1Nc1nc(N2CCCNCC2)nc2c1CSC2 [Example 263, N-(4-(1H-pyrazol-4-yl)phenyl)-2-(1,4-diazepan-1-yl)-5,7-dihydrothieno[3,4-d]pyrimidin-4-amine] | 82 |  | IC50 [1, 4]: 1390 nM; inhibition at 1 µM [2]: 101%
c1cc2nc(N3CCCNCC3)nc(Nc3ccc(-c4cn[nH]c4)cc3)c2s1 [Example 264, N-(4-(1H-pyrazol-4-yl)phenyl)-2-(1,4-diazepan-1-yl)thieno[3,2-d]pyrimidin-4-amine] | 60.2 |  | IC50 [1, 4]: 514 nM; inhibition at 1 µM [2]: 92.8%; IC50 ([2]; 9 points 2-fold serial dilution): 30 nM
Cc1cc(Nc2ccc(-c3cn[nH]c3)cc2)nc(N2CCCNCC2)n1 [Example 265, N-(4-(1H-pyrazol-4-yl)phenyl)-2-(1,4-diazepan-1-yl)-6-methylpyrimidin-4-amine] | 80 |  | IC50 [1, 4]: 1370 nM; inhibition at 1 µM [2]: 71.2%
COc1cnc(N2CCCNCC2)nc1Nc1ccc(-c2cn[nH]c2)cc1 [Example 267, N-(4-(1H-pyrazol-4-yl)phenyl)-2-(1,4-diazepan-1-yl)-5-methoxypyrimidin-4-amine] | 70 |  | inhibition at 1 µM [2]: 52.3%
COc1cccc(C2CCN(c3nccc(Nc4ccc(-c5cn[nH]c5)cc4)n3)C2)c1 (stereo not drawn) [Example 269, N-(4-(1H-pyrazol-4-yl)phenyl)-2-(3-(3-methoxyphenyl)pyrrolidin-1-yl)pyrimidin-4-amine] |  | 1650 | pMLC % inh A7R5 @ [conc] ([1]; A7R5 cells): −5.7% and −7.2%
c1ccc(C2CCN(c3nccc(Nc4ccc(-c5cn[nH]c5)cc4)n3)C2)cc1 (stereo not drawn) [Example 270, N-(4-(1H-pyrazol-4-yl)phenyl)-2-(3-phenylpyrrolidin-1-yl)pyrimidin-4-amine] |  | 1430 | pMLC % inh A7R5 @ [conc] ([1]; A7R5 cells): −6.9% and −8.9%
Clc1cnc(N2CC3CC(C2)N3)nc1Nc1ccc2[nH]ncc2c1 [Example 280, N-(2-(3,6-diazabicyclo[3.1.1]heptan-3-yl)-5-chloropyrimidin-4-yl)-1H-indazol-5-amine] |  | 263 | inhibition at 1 µM ([1]; Rattus norvegicus, A7R5, A7R5 cells, 1 μM compound, read-out: pMLC % inh A7R5 @ [conc]): 26.6%
CN1CCc2nc(N3C4CCC3CNC4)nc(Nc3ccc(-c4cn[nH]c4)cc3)c2C1 [Example 303, N-(4-(1H-pyrazol-4-yl)phenyl)-2-(3,8-diazabicyclo[3.2.1]octan-8-yl)-6-methyl-5,6,7,8-tetrahydropyrido[4,3-d]pyrimidin-4-amine] |  | 257 | IC50 [1, 5]: > 10000 nM

Compound | inhibition at 10 µM [1, 3] [%] | IC50 [2] [nM] | other results
c1cc(-c2ccc(Nc3nc(N4C5CCC4CNC5)nc4c3CNC4)cc2)ccn1 [Example 306, 2-(3,8-diazabicyclo[3.2.1]octan-8-yl)-N-(4-(pyridin-4-yl)phenyl)-6,7-dihydro-5H-pyrrolo[3,4-d]pyrimidin-4-amine] |  | > 1000 | IC50 [1, 5]: > 10000 nM
c1cc(Nc2ccnc(N3CCNCC3)n2)cc(-c2cn[nH]c2)c1 [Example 347, N-(3-(1H-pyrazol-4-yl)phenyl)-2-(piperazin-1-yl)pyrimidin-4-amine] | 17 | > 10000 | 
Nc1ccc(-c2ccc(Nc3ccnc(N4CCNCC4)n3)cc2)cn1 [Example 350, N-(4-(6-aminopyridin-3-yl)phenyl)-2-(piperazin-1-yl)pyrimidin-4-amine] | 14.8 | 3700 | 
c1cc(Nc2ccc(-c3cnc[nH]3)cc2)nc(N2CCNCC2)n1 [Example 351, N-(4-(1H-imidazol-5-yl)phenyl)-2-(piperazin-1-yl)pyrimidin-4-amine] | 7.8 | > 10000 | 
c1cc(Nc2ccc(-c3cncs3)cc2)nc(N2CCNCC2)n1 [Example 353, 2-(piperazin-1-yl)-N-(4-(thiazol-5-yl)phenyl)pyrimidin-4-amine] |  | > 10000 | pMLC % inh A7R5 @ [conc] ([1]; A7R5 cells): 25.55%
c1cc(Nc2ccc(-c3nnc[nH]3)cc2)nc(N2CCNCC2)n1 [Example 354, N-(4-(4H-1,2,4-triazol-3-yl)phenyl)-2-(piperazin-1-yl)pyrimidin-4-amine] | 6.4 | > 10000 | 
Nc1nc(-c2ccc(Nc3ccnc(N4CCNCC4)n3)cc2)cs1 [Example 355, 4-(4-((2-(piperazin-1-yl)pyrimidin-4-yl)amino)phenyl)thiazol-2-amine] | 21.9 | > 10000 | 
Nc1nnc(-c2ccc(Nc3ccnc(N4CCNCC4)n3)cc2)s1 [Example 356, 5-(4-((2-(piperazin-1-yl)pyrimidin-4-yl)amino)phenyl)-1,3,4-thiadiazol-2-amine] | 6.59 | > 10000 | 
O=c1ccc(-c2ccc(Nc3ccnc(N4CCNCC4)n3)cc2)n[nH]1 [Example 357, 6-(4-((2-(piperazin-1-yl)pyrimidin-4-yl)amino)phenyl)pyridazin-3 (2H)-one] | 6.35 | 1900 | 
c1cc(Nc2ccc(-c3cnco3)cc2)nc(N2CCNCC2)n1 [Example 358, N-(4-(oxazol-5-yl)phenyl)-2-(piperazin-1-yl)pyrimidin-4-amine] | 24.3 | > 10000 | 
Nc1cc(-c2ccc(Nc3ccnc(N4CCNCC4)n3)cc2)ccn1 [Example 359, N-(4-(2-aminopyridin-4-yl)phenyl)-2-(piperazin-1-yl)pyrimidin-4-amine] | 21.8 | > 10000 | 
O=c1cc(-c2ccc(Nc3ccnc(N4CCNCC4)n3)cc2)cc[nH]1 [Example 360, 4-(4-((2-(piperazin-1-yl)pyrimidin-4-yl)amino)phenyl)pyridin-2(1H)-one] | 1.69 | 5200 | 
Nc1ncc(-c2ccc(Nc3ccnc(N4CCNCC4)n3)cc2)s1 [Example 361, 5-(4-((2-(piperazin-1-yl)pyrimidin-4-yl)amino)phenyl)thiazol-2-amine] | 2.02 | > 10000 | 
O=C1Cc2cc(Nc3ccnc(N4CCNCC4)n3)ccc2N1 [Example 365, 5-((2-(piperazin-1-yl)pyrimidin-4-yl)amino)indolin-2-one] | 5.72 | > 10000 | 
c1cc(Nc2ccc(-c3ccnc4[nH]ccc34)cc2)nc(N2CCNCC2)n1 [Example 368, N-(4-(1H-pyrrolo[2,3-b]pyridin-4-yl)phenyl)-2-(piperazin-1-yl)pyrimidin-4-amine] | 91.3 | 1050 | IC50 [1, 5]: 1630 nM
c1cc(Nc2cnc3[nH]ccc3c2)nc(N2CCCNCC2)n1 [Example 370, N-(2-(1,4-diazepan-1-yl)pyrimidin-4-yl)-1H-pyrrolo[2,3-b]pyridin-5-amine] | 5.8 | 6270 | 

— patent US11613531B2, “Inhibitors of RHO associated coiled-coil containing protein kinase” (Kadmon Corporation, LLC, priority 2017, dated 2023)
